In patent publication US20020052504A1, “PIPERIDINE DERIVATIVES AND THEIR USE AS TACHYKININ ANTAGONISTS” (priority 1997, published 2002):
Where a name gives a salt, the structure may show the parent alone.

Molecular target: human NK1 receptor (Homo sapiens, UniProt P25103)
Assay: NK1 receptor test by the methods of WO 93/01165 (pages 36 to 39)
Format: binding
Protocol: The exemplified compounds of this invention were tested by the methods set out at pages 36 to 39 of International Patent Specification No. WO 93/01165.

Sequence of human NK1 receptor (P25103 whole entry): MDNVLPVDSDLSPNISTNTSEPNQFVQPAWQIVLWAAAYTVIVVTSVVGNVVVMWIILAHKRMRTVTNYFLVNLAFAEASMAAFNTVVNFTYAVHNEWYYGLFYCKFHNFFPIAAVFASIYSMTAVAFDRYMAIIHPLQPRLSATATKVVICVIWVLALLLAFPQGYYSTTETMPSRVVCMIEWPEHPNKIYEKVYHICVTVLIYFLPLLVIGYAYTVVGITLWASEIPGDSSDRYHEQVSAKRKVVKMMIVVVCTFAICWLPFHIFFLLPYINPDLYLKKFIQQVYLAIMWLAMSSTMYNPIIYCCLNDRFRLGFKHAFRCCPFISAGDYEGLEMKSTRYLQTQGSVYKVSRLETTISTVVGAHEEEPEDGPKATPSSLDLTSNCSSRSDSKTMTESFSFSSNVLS

SMILES: Fc1ccc(C2NCCCC2NCc2cc(-n3nnnc3C(F)(F)F)ccc2OC2CC2)cc1 (racemic) [Example 2, (±)-(2 R3 R 2 S3 S)-N-({2-Cyclopropoxy-5-[5-(trifluoromethyl)tetrazol-1-yl]phenyl}methyl)-2-(4-fluorophenyl)piperidin-3-amine Dihydrochloride]
- IC50: 0.13 nM

SMILES: FC(F)(F)c1nnnn1-c1ccc(OC2CC2)c(CN[C@H]2CCCN[C@H]2c2ccccc2)c1 [Example 1, (2 S3 S)-N-({2-Cyclopropoxy-5-[5-(trifluoromethyl)tetrazol-1-yl]phenyl}methyl)-2-phenylpiperidin-3-amine Dihydrochloride]
- IC50: 0.08 nM
